Measurements from patent publication US20250034135A1, “ANTI-APOPTOTIC PROTEIN BCL-2 INHIBITOR, PHARMACEUTICAL COMPOSITION AND USES THEREOF” (HANGZHOU HEALZEN THERAPEUTICS CO., LTD., priority 2021, published 2025).
Like-named read-outs stand apart in the source and are kept apart here.

What was measured:
[1] = test system: RS4; 11 cells; assay: Tumor proliferation inhibitory activity test (MTS) on RS4; 11; format: cell-based; details: Homo sapiens, RS4-11, 72 h, 3 days incubation
Protocol: The cell proliferation inhibitory ability of the compounds on RS4; 11 was tested using the MTS method. MTS is a tetrazolium blue salt compound that can be reduced by various dehydrogenases in live cell mitochondria to their respective colored methylzan products. Its color depth is highly correlated with the number of live cells in certain sensitive cell lines within a certain range. RS4; 11, RS4; 11 (BCL-2-G101V) and MOLT-4 tumor cells were cultivated separately and collected, 180 μL of cell suspension was added to each well in a 96-well cell plate, 20 μL of DMSO with a final concentration of 0.2% was added to the control cell wells, 20 μL of gradient diluted compounds were added to cell wells, and the treated cells were incubated in a 5% CO2 incubator at 37° C. for 3 days. After the incubation was completed, the reaction solution was prepared according to the MTS reagent kit, 20 μL was added per well and incubated in a 5% CO2 incubator at 37° C. for 3-4 hours. The absorbance value at 490 nm was read using an enzyme-linked immunosorbent assay (ELISA) plate, and the absorbance value at 690 nm was used as the background value, with OD490 nm-OD690 nm as the final raw data. The formula for calculating the inhibition ratio of compounds was as follows: inhibition ratio=(ODDMSO−ODCompound)/(ODDMSO−ODblank)×100%.

[2] = biological target: BCL2 (Homo sapiens (Human), UniProt P10415); assay: Molecular level activity test of anti-apoptotic protein BCL2 (HTRF, binding to Bim peptide); details: HTRF, binding of BCL2 to Bim peptide; read-out: BCL2 nM (inhibitory activity, IC50)
Method in brief: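 Signal comes from proximity of anti-His-labelled BCL2 and streptavidin-XL665-bound biotin-BIM peptide. Test compounds, added in 2% DMSO, were preincubated with protein and peptide for one hour; detection reagents then incubated four hours at room temperature before reading.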

[3] = biological target: BCL2 (D103Y) (Homo sapiens (Human), UniProt P10415, D103Y); assay: Molecular level activity test of BCL2 (D103Y) (HTRF, binding to Bim peptide); details: read-out: BCL-2 (D103Y) (nM) (inhibitory activity, IC50)
Protocol: (§1) The detection of the binding ability between anti-apoptotic protein BCL2 (D103Y) and pro-apoptotic protein Bim was performed using Homogeneous Time-Resolved Fluorescence technology. The reaction of this method occurred in a white shallow 384-well plate, with a total reaction volume of 10 μL. Specifically, it included 2 μL of the compound to be tested (2% DMSO), 4 μL His-tagged recombinant protein, and 4 μL Biotin-tagged BIM protein peptide. After 1 hour of reaction, 5 μL of each Anti-His and streptavidin-tagged XL665 antibody diluents diluted with a detection buffer were added. After incubating at room temperature for 4 hours, the values were read using the Envision multifunctional microplate reader to detect the effect of the compound to be tested on the binding ability of BCL2 (D103Y) to BIM protein peptides.

[4] = biological target: BCL2 (G101V) (Homo sapiens (Human), UniProt P10415, G101V); assay: Molecular level activity test of anti-apoptotic protein BCL2 (G101V) (HTRF, binding to Bim peptide); details: inhibition of BCL2 (G101V) binding to Bim peptide, read-out: BCL-2 (G101V)
Protocol: as §1, with “BCL2 (G101V)” for “BCL2 (D103Y)”, “[…]” for “5 μL”

[5] = biological target: BCL-XL (Homo sapiens (Human), UniProt Q07817); assay: BCL-XL enzyme molecular level activity test (HTRF, binding to BIM peptide); details: binding of BCL-XL to BIM peptide, read-out: BCL-XL inhibitory activity (IC50)
BCL-XL, sequence (Q07817 whole entry): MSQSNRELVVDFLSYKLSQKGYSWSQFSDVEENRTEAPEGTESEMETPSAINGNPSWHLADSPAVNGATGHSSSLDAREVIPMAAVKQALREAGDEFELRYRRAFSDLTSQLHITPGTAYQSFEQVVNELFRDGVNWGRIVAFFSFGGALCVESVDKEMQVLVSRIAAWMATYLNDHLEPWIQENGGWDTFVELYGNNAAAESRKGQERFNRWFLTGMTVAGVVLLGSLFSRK
Protocol: In a white shallow 384-well plate, a total reaction volume was 10 μL. Specifically, it included 2 μL of the compound to be tested (2% DMSO), […] His-tagged recombinant protein, and 4 μL Biotin-tagged BIM protein peptide. After 1 hour of reaction, 5 μL of each Anti-His and streptavidin-tagged XL665 antibody diluents diluted with a detection buffer were added. After incubating at room temperature for 4 hours, the values were read using the Envision multifunctional microplate reader to detect the effect of the compound to be tested on the binding ability of BCL-XL to BIM protein peptides. The Envision parameter settings were exciting light at 320 nm, and emitting light at 615 nm and 665 nm. The binding ability of anti-apoptotic proteins to Bim protein peptides was indirectly reflected by the signal ratio of 665 nm and 615 nm. In the reaction, background wells without BCL2 and active wells for full binding of recombinant proteins without compounds and Bim protein peptides were set up.

SMILES	IC50 [1] [nM]	IC50 [2] [nM]	IC50 [3] [nM]	IC50 [4] [nM]	IC50 ([5]; values given in μM) [µM]	IC50 ([5]; values in nM) [µM]
COc1ccc(CN2CCN(C3CC4(CCN(c5ccc(C(=O)NS(=O)(=O)c6cc([N+](=O)[O-])c(NCC7CCOCC7)c7c6OCCO7)c(Oc6cnc7[nH]ccc7c6)c5)CC4)C3)[C@H](c3ccccc3C(C)C)C2)cc1 [compound 146, (R)-2-((1H-pyrrolo[2,3-b]pyrid-5-yl)oxy)-4-(2-(2-(2-isopropylphenyl)-4-(4-methoxybenzyl)piperazin-1-yl)-7-azaspiro[3.5]non-7-yl)-N-((7-nitro-8-(((tetrahydro-2H-pyran-4-yl)methyl)amino)-2,3-dihydrobenzo[b][1,4]dioxan-5-yl)sulfonyl)benzamide]	0.5 to 1	< 10	< 10	< 10	2.7	
COc1cccc(CN2CCN(C3CC4(CCN(c5cc(Oc6cnc7[nH]ccc7c6)c(C(=O)NS(=O)(=O)c6ccc(NCC7(F)CCOCC7)c([N+](=O)[O-])c6)cc5F)CC4)C3)[C@H](c3ccccc3C(C)C)C2)c1 [compound 184, (R)-2-((1H-pyrrolo[2,3-b]pyrid-5-yl)oxy)-5-fluoro-N-((4-(((4-fluorotetrahydro-2H-pyran-4-yl)methyl)amino)-3-nitrophenyl)sulfonyl)-4-(2-(2-(2-isopropylphenyl)-4-(3-methoxybenzyl)piperazin-1-yl)-7-azaspiro[3.5]non-7-yl)benzamide]		< 10		< 10		> 0.5
CNCc1cc(CN2CCN(C3CC4(CCN(c5cc(Oc6cnc7[nH]ccc7c6)c(C(=O)NS(=O)(=O)c6ccc(NCC7(F)CCOCC7)c([N+](=O)[O-])c6)cc5F)CC4)C3)[C@H](c3ccccc3C(C)C)C2)ccc1OC [compound 249, (R)-2-((1H-pyrrolo[2,3-b]pyrid-5-yl)oxy)-5-fluoro-N-((4-(((4-fluorotetrahydro-2H-pyran-4-yl)methyl)amino)-3-nitrophenyl)sulfonyl)-4-(2-(2-(2-isopropylphenyl)-4-(4-methoxy-3-((methylamino)methyl)benzyl)piperazin-1-yl)-7-azaspiro[3.5]non-7-yl)benzamide]	0.5 to 1	< 10	< 10	< 10		> 0.5
CC(C)c1ccccc1[C@@H]1CN(Cc2ccc(F)cc2)CCN1C1CC2(CCN(c3cc(Oc4cnc5[nH]ccc5c4)c(C(=O)NS(=O)(=O)c4ccc(NCC5(F)CCOCC5)c([N+](=O)[O-])c4)cc3F)CC2)C1 [compound 186, (R)-2-((1H-pyrrolo[2,3-b]pyrid-5-yl)oxy)-5-fluoro-4-(2-(4-(4-fluorobenzyl)-2-(2-isopropylphenyl)piperazin-1-yl)-7-azaspiro[3.5]non-7-yl)-N-((4-(((4-fluorotetrahydro-2H-pyran-4-yl)methyl)amino)-3-nitrophenyl)sulfonyl)benzamide]		< 10		< 10		> 0.5
CC(C)c1ccccc1[C@@H]1CN(Cc2ccc3c(c2)OCO3)CCN1C1CC2(CCN(c3cc(Oc4cnc5[nH]ccc5c4)c(C(=O)NS(=O)(=O)c4ccc(NCC5(F)CCOCC5)c([N+](=O)[O-])c4)cc3F)CC2)C1 [compound 203, (R)-2-((1H-pyrrolo[2,3-b]pyrid-5-yl)oxy)-4-(2-(4-(benzo[d][1,3]dioxocyclopent-5-ylmethyl)-2-(2-isopropylphenyl)piperazin-1-yl)-7-azaspiro[3.5]non-7-yl)-5-fluoro-N-((4-(((4-fluorotetrahydro-2H-pyran-4-yl)methyl)amino)-3-nitrophenyl)sulfonyl)benzamide]		< 10		< 10		> 0.5
COc1cc(CN2CCN(C3CC4(CCN(c5cc(Oc6cnc7[nH]ccc7c6)c(C(=O)NS(=O)(=O)c6ccc(NCC7(F)CCOCC7)c([N+](=O)[O-])c6)cc5F)CC4)C3)[C@H](c3ccccc3C(C)C)C2)ccc1C1CC1 [compound 196, (R)-2-((1H-pyrrolo[2,3-b]pyrid-5-yl)oxy)-4-(2-(4-(4-cyclopropyl-3-methoxybenzyl)-2-(2-isopropylphenyl)piperazin-1-yl)-7-azaspiro[3.5]non-7-yl)-5-fluoro-N-((4-(((4-fluorotetrahydro-2H-pyran-4-yl)methyl)amino)-3-nitrophenyl)sulfonyl)benzamide]		< 10		< 10		> 0.5
CC(C)c1ccc(CN2CCN(C3CC4(CCN(c5cc(Oc6cnc7[nH]ccc7c6)c(C(=O)NS(=O)(=O)c6ccc(NCC7(F)CCOCC7)c([N+](=O)[O-])c6)cc5F)CC4)C3)[C@H](c3ccccc3C(C)C)C2)cc1 [compound 193, (R)-2-((1H-pyrrolo[2,3-b]pyrid-5-yl)oxy)-5-fluoro-N-((4-(((4-fluorotetrahydro-2H-pyran-4-yl)methyl)amino)-3-nitrophenyl)sulfonyl)-4-(2-(4-(4-isopropylbenzyl)-2-(2-isopropylphenyl)piperazin-1-yl)-7-azaspiro[3.5]non-7-yl)benzamide]		< 10				> 0.5

The next lines start with the values.

IC50 [1] [nM]	IC50 [2] [nM]	IC50 [3] [nM]	IC50 [4] [nM]	IC50 ([5]; values given in μM) [µM]	IC50 ([5]; values in nM) [µM]	SMILES
	< 10		< 10	> 1		COc1ccc(CN2CCN(C3CC4(CCN(c5cc(Oc6cnc7[nH]cc(F)c7c6)c(C(=O)NS(=O)(=O)c6ccc(NCC7(F)CCN(C(C)C)CC7)c([N+](=O)[O-])c6)cc5F)CC4)C3)C(c3ccccc3C(C)C)C2)cc1 (centres unmarked) [compound 062]
0.5 to 1						CC(C)c1ccccc1[C@@H]1CN(Cc2cnn(C)c2)CCN1C1CC2(CCN(c3cc(Oc4cnc5[nH]ccc5c4)c(C(=O)NS(=O)(=O)c4ccc(NC[C@H]5CC[C@](C)(O)CC5)c([N+](=O)[O-])c4)cc3F)CC2)C1 [compound 238, 2-((1H-pyrrolo[2,3-b]pyrid-5-yl)oxy)-5-fluoro-N-((4-((((1r, 4r)-4-hydroxy-4-methylcyclohexyl)methyl)amino)-3-nitrophenyl)sulfonyl)-4-(2-((R)-2-(2-isopropylphenyl)-4-((1-methyl-1H-pyrazole-4-yl)methyl)piperazin-1-yl)-7-azaspiro[3.5]non-7-yl)benzamide]
0.5 to 1	< 10	< 10	< 10			COc1ccc(CN2CCN(C3CC4(CCN(c5cc(Oc6cnc7[nH]cc(F)c7c6)c(C(=O)NS(=O)(=O)c6ccc(NC[C@H]7CC[C@](C)(O)CC7)c([N+](=O)[O-])c6)cc5F)CC4)C3)[C@H](c3ccccc3C(C)C)C2)cc1 [compound 235, 5-fluoro-2-((3-fluoro-1H-pyrrolo[2,3-b]pyrid-5-yl)oxy)-N-((4-((((1r, 4r)-4-hydroxy-4-methylcyclohexyl)methyl)amino)-3-nitrophenyl)sulfonyl)-4-(2-((R)-2-(2-isopropylphenyl)-4-(4-methoxybenzyl)piperazin-1-yl)-7-azaspiro[3.5]non-7-yl)benzamide]
